Measurements from publication PMC8018242, “AbhemC encoding porphobilinogen deaminase plays an important role in chlorophyll biosynthesis and function in albino Ananas comosus var. bracteatus leaves” (PeerJ, 2021).

Molecular target: T1, AbHEMC (porphobilinogen deaminase, PBGD) (Ananas comosus, UniProt A0A1B2LUE6)
T1 construct: gene hemC; E. coli Rosetta-gami (DE3); about 45 kD on SDS-PAGE
Experiment: in vitro PBGD activity assay (method of Lee et al. […])
Type: biochemical
Conditions: recombinant fusion protein; substrate inferred from the named PBGD activity, assay conditions not given

T1 sequence (A0A1B2LUE6 entry or part of it): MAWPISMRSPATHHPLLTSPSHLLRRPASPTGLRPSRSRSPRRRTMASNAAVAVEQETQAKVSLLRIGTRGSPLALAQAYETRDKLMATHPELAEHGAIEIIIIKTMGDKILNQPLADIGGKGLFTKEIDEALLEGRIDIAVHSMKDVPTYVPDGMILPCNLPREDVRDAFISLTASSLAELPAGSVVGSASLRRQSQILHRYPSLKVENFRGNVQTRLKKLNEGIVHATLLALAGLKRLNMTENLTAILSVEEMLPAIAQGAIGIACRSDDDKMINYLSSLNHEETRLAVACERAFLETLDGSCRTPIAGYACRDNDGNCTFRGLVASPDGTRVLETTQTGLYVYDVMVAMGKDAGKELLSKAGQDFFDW

For `NCc1[nH]cc(CCC(=O)O)c1CC(=O)O` [porphobilinogen], the “in vitro PBGD activity assay (method of Lee et al. 1992)” value was “in vitro analysis showed that the prokaryotic-expressed AbHEMC protein had PBGD activity”.
